Measurements taken from US9301951B2 (Ardelyx, Inc., priority 2010, dated 2016).

What follows are compounds tested against T1, rat NaP2b (SLC34A2) (Rattus norvegicus, UniProt Q9JJ09) (assay: Inhibition of NaP2b-mediated Pi (33P) uptake in transfected HEK293 cells, rat NaP2b). Settings: HEK293 cells transfected with rat NaP2b, 100 uM phosphate, 0.1 nM to 30 uM, read-out: pIC50 range for rat Nap2b (converted).
T1 construct: host or cells: HEK293
T1 sequence (Q9JJ09 1-695): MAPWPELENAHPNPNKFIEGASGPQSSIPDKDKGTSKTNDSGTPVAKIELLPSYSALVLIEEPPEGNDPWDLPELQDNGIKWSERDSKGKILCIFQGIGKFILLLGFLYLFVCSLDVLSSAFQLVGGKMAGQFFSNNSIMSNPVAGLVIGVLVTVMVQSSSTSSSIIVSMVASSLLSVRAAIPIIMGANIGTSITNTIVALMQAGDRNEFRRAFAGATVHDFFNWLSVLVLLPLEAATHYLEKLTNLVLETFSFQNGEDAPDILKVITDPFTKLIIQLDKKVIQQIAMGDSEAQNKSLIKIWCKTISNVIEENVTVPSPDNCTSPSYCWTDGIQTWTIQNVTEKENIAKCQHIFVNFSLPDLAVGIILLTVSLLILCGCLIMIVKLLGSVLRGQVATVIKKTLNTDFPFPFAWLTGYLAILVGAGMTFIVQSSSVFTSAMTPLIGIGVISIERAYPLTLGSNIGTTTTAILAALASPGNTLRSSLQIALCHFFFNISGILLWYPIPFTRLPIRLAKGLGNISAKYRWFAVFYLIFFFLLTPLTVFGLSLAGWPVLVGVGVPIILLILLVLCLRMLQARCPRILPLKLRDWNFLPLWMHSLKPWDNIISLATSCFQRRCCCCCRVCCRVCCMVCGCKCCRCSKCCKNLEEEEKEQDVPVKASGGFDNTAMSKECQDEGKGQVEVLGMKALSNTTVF
Format: cell-based
Procedure: HEK293 cells were obtained from the American Type Culture collection and propagated per their instructions. Expression clones for rat and human NaP2b (SLC34A2) were obtained from Open Biosystems (Catalog numbers MRN1768-9510282, and MHS1010-99823026, respectively). The sequence of the human protein was mutated to insert a threonine after residue 37, and to introduce a N39D mutation.
Cells were seeded into 96-well plates at 25,000 cells/well and cultured overnight. Lipofectamine 2000 (Invitrogen) was used to introduce the NaP2b cDNA, and the cells were allowed to approach confluence during a second overnight incubation. […] Cells were then overlayed with either choline uptake buffer or sodium uptake buffer (14 mM Tris, 137 mM sodium chloride, 5.4 mM KCl, 2.8 mM CaCl2, 1.2 mM MgSO4, 100 uM KH2PO4, PiT-silencing agent, 1 mg/mL Bovine Serum Albumin, pH 7.4) containing 6-9 uCi/mL ^33P orthophosphoric acid (Perkin Elmer) and test compound. Each compound was tested at twelve concentrations ranging from 0.1 nM to 30 uM. Assays were run in duplicate.
Cells were lysed by addition of 20 μL 0.1% Tween 80 followed by 100 μL scintillation fluid, and counted using a TopCount (Perkin Elmer).
pIC50 (the negative log of the […]) values of the test compounds were calculated using GraphPad Prism.

Row | SMILES | IC50 [µM]
1 | CC(=O)N1CCCN(Cc2cccc(C(=O)Nc3ccc(N4CCCCC4)cc3-c3cc(C(=O)NCc4cccc(C(F)(F)F)c4)ccn3)c2)CC1 [Example 49, 2-(2-(3-((4-Acetyl-1,4-diazepan-1-yl)methyl)benzamido)-5-(piperidin-1-yl)phenyl)-N-(3-(trifluoromethyl)benzyl)isonicotinamide] | 1 to 7.94
2 | CC(=O)N1CCN(Cc2cccc(C(=O)Nc3ccc(N4CCCCC4)cc3-c3cc(C(=O)NCc4cccc(C(F)(F)F)c4)ccn3)c2)CC1 [Example 50, 2-(2-(3-((4-Acetylpiperazin-1-yl)methyl)benzamido)-5-(piperidin-1-yl)phenyl)-N-(3-(trifluoromethyl)benzyl)isonicotinamide] | 1 to 7.94
3 | CN(CCN1CCN(S(C)(=O)=O)CC1)Cc1cccc(C(=O)Nc2ccc(N3CCCCC3)cc2-c2cc(C(=O)NCc3cccc(C(F)(F)F)c3)ccn2)c1 [Example 39] | 1 to 7.94
4 | CN(CCN1CCOCC1)C(=O)c1cccc(C(=O)Nc2ccc(N3CCCCC3)cc2-c2cc(-c3cn(Cc4ccccc4)nn3)ccn2)c1 [Example 24, N1-(2-(4-(1-Benzyl-1H-1,2,3-triazol-4-yl)pyridin-2-yl)-4-(piperidin-1-yl)phenyl)-N3-methyl-N3-(2-morpholinoethyl)isophthalamide] | 1 to 7.94
5 | COc1ccc(NC(=O)c2cccc(CSCCC(=O)O)c2)c(-c2cc(C(=O)NCc3cccc(C(F)(F)F)c3)ccn2)c1 [Example 30, 3-((3-((4-Methoxy-2-(4-((3-(trifluoromethyl)benzyl)carbamoyl)pyridin-2-yl)phenyl)carbamoyl)benzyl)thio)propanoic acid] | 1 to 7.94
6 | O=C(O)CCSCc1cccc(C(=O)Nc2ccc(N3CCCC3)cc2-c2cc(C(=O)NCc3cccc(C(F)(F)F)c3)ccn2)c1 [Example 20, 3-((3-((4-(Pyrrolidin-1-yl)-2-(4-((3-(trifluoromethyl)benzyl)carbamoyl)pyridin-2-yl)phenyl)carbamoyl)benzyl)thio)propanoic acid] | 1 to 7.94
7 | CN1CCCN(Cc2cccc(C(=O)Nc3ccc(N4CCCCC4)cc3-c3cc(C(=O)NCc4cccc(C(F)(F)F)c4)ccn3)c2)CC1 [Example 45, 2-(2-(3-((4-Methyl-1,4-diazepan-1-yl)methyl)benzamido)-5-(piperidin-1-yl)phenyl)-N-(3-(trifluoromethyl)benzyl)isonicotinamide] | 10 to 31.6
8 | O=C(O)CCSCc1cccc(C(=O)Nc2ccccc2-c2cc(C(=O)NCc3cccc(C(F)(F)F)c3)ccn2)c1 [Example 22, 3-((3-((2-(4-((3-(Trifluoromethyl)benzyl)carbamoyl)pyridin-2-yl)phenyl)carbamoyl)benzyl)thio)propanoic acid] | 10 to 31.6
9 | COCCOc1ccc(NC(=O)c2cccc(CSCCC(=O)O)c2)c(-c2cc(C(=O)NCc3cccc(C(F)(F)F)c3)ccn2)c1 [Example 34, 3-((3-((4-(2-Methoxyethoxy)-2-(4-((3-(trifluoromethyl)benzyl)carbamoyl)pyridin-2-yl)phenyl)carbamoyl)benzyl)thio)propanoic acid] | 10 to 31.6
10 | CCOc1ccc(NC(=O)c2cccc(CSCCC(=O)O)c2)c(-c2cc(C(=O)NCc3cccc(C(F)(F)F)c3)ccn2)c1 [Example 29, 3-((3-((4-Ethoxy-2-(4-((3-(trifluoromethyl)benzyl)carbamoyl)pyridin-2-yl)phenyl)carbamoyl)benzyl)thio)propanoic acid] | 1 to 7.94
11 | CC(C)(C)OC(=O)N1CCCN(Cc2cccc(C(=O)Nc3ccc(N4CCCCC4)cc3-c3cc(C(=O)NCc4cccc(C(F)(F)F)c4)ccn3)c2)CC1 [Example 44, tert-Butyl 4-(3-((4-(piperidin-1-yl)-2-(4-((3-(trifluoromethyl)benzyl)carbamoyl)pyridin-2-yl)phenyl)carbamoyl)benzyl)-1,4-diazepane-1-carboxylate] | 10 to 31.6
12 | O=C(O)CCSCc1cccc(C(=O)Nc2ccc(N3CCSCC3)cc2-c2cc(C(=O)NCc3cccc(C(F)(F)F)c3)ccn2)c1 [Example 27, 3-((3-((4-Thiomorpholino-2-(4-((3-(trifluoromethyl)benzyl)carbamoyl)pyridin-2-yl)phenyl)carbamoyl)benzyl)thio)propanoic acid] | 1 to 7.94
13 | O=C(O)CCSCc1cccc(C(=O)Nc2ccc(F)cc2-c2cc(C(=O)NCc3cccc(C(F)(F)F)c3)ccn2)c1 [Example 18, 3-((3-((4-Fluoro-2-(4-((3-(trifluoromethyl)benzyl)carbamoyl)pyridin-2-yl)phenyl)carbamoyl)benzyl)thio)propanoic acid] | 1 to 7.94
14 | O=C(O)CCSCc1cccc(C(=O)Nc2ccc(N3CCCCC3)cc2-c2cc(C(=O)NCCCCCCCCCCCCNC(=O)c3ccnc(-c4cc(N5CCCCC5)ccc4NC(=O)c4cccc(CSCCC(=O)O)c4)c3)ccn2)c1 [Example 2] | 10 to 31.6
15 | COCCNC(=O)CCN(C)Cc1cccc(C(=O)Nc2ccc(N3CCCCC3)cc2-c2cc(C(=O)NCc3cccc(C(F)(F)F)c3)ccn2)c1 [Example 51, 2-(2-(3-(((3-((2-Methoxyethyl)amino)-3-oxopropyl)(methyl)amino)methyl)benzamido)-5-(piperidin-1-yl)phenyl)-N-(3-(trifluoromethyl)benzyl)isonicotinamide] | 1 to 7.94
16 | CCN(CC)c1ccc(NC(=O)c2cccc(C(=O)N(C)CCN(C)CCOCCOCCOCCNC(=O)C(C)(C)C)c2)c(-c2cc(C(=O)NCc3cccc(C(F)(F)F)c3)ccn2)c1 [Example 346, N^1-(4-(diethylamino)-2-(4-(3-(trifluoromethyl)benzylcarbamoyl)pyridin-2-yl)phenyl)-N^3-methyl-N^3-(3,17,17-trimethyl-16-oxo-6,9,12-trioxa-3,15-diazaoctadecyl)isophthalamide] | 1 to 7.94
17 | O=C(O)CCSCc1cccc(C(=O)Nc2ccc(N3CC4CCCC4C3)cc2-c2cc(C(=O)NCc3cccc(C(F)(F)F)c3)ccn2)c1 (centres unmarked) [Example 28, 3-((3-((4-(Hexahydrocyclopenta[c]pyrrol-2(1H)-yl)-2-(4-((3-(trifluoromethyl)-benzyl)carbamoyl)pyridin-2-yl)phenyl)carbamoyl)benzyl)thio)propanoic acid] | 1 to 7.94
18 | O=C(O)CCSCc1cccc(C(=O)Nc2ccc(N3CCCCC3)cc2-c2cc(C(O)CCc3ccccc3)ccn2)c1 (centres unmarked) [Example 6.1, 3-((3-((2-(4-(1-hydroxy-3-phenylpropyl)pyridin-2-yl)-4-(piperidin-1-yl)phenyl)carbamoyl)benzyl)thio)propanoic acid] | 10 to 31.6
19 | CC(C)Oc1ccc(NC(=O)c2cccc(CSCCC(=O)O)c2)c(-c2cc(C(=O)NCc3cccc(C(F)(F)F)c3)ccn2)c1 [Example 15, 3-((3-((4-Isopropoxy-2-(4-((3-(trifluoromethyl)benzyl)carbamoyl)pyridin-2-yl)phenyl)carbamoyl)benzyl)thio)propanoic acid] | 1 to 7.94
20 | CC(=O)NC1CCN(Cc2cccc(C(=O)Nc3ccc(N4CCCCC4)cc3-c3cc(C(=O)NCc4cccc(C(F)(F)F)c4)ccn3)c2)C1 (stereo in doubt) [Example 48, (S)-2-(2-(3-((3-Acetamidopyrrolidin-1-yl)methyl)benzamido)-5-(piperidin-1-yl)phenyl)-N-(3-(trifluoromethyl)benzyl)isonicotinamide] | 1 to 7.94
21 | COCCN(CCOC)c1ccc(NC(=O)c2cccc(CSCCC(=O)O)c2)c(-c2cc(C(=O)NCc3cccc(C(F)(F)F)c3)ccn2)c1 [Example 17, 3-(3-((2-(4-((3-(trifluoromethyl)benzyl)carbamoyl)pyridin-2-yl)-4-(bis(2-methoxyethyl)amino)phenyl)carbamoyl)benzylthio)propanoic acid] | 1 to 7.94
22 | CN1CCN(CCN(C)Cc2cccc(C(=O)Nc3ccc(N4CCCCC4)cc3-c3cc(C(=O)NCc4cccc(C(F)(F)F)c4)ccn3)c2)CC1 [Example 40, 2-(2-(3-((Methyl(2-(4-methylpiperazin-1-yl)ethyl)amino)methyl)benzamido)-5-(piperidin-1-yl)phenyl)-N-(3-(trifluoromethyl)benzyl)isonicotinamide] | 10 to 31.6
23 | CC(C)COc1ccc(NC(=O)c2cccc(CSCCC(=O)O)c2)c(-c2cc(C(=O)NCc3cccc(C(F)(F)F)c3)ccn2)c1 [Example 33] | 10 to 31.6
